This passage reports IC50 results from ChEMBL document CHEMBL1201862, “PubChem BioAssay data set” (2004).

The IC50 is the concentration at which inhibition is half-maximal.

The assay concerns the target Envelope glycoprotein gp160 (Human immunodeficiency virus 1, UniProt Q6QLK5). The assay can be described thus: inhibitors of HIV fusion peptide binding, primary screen, biochemical, uHTS, fluorescence dequenching (AID 1986).

Active and inactive are the calls of the source. Cut-off read from the data, not from the text of the source: actives have a measured IC50 and inactives only a lower limit.

Sequence of Envelope glycoprotein gp160 (Q6QLK5 whole entry, the tested form may be a part): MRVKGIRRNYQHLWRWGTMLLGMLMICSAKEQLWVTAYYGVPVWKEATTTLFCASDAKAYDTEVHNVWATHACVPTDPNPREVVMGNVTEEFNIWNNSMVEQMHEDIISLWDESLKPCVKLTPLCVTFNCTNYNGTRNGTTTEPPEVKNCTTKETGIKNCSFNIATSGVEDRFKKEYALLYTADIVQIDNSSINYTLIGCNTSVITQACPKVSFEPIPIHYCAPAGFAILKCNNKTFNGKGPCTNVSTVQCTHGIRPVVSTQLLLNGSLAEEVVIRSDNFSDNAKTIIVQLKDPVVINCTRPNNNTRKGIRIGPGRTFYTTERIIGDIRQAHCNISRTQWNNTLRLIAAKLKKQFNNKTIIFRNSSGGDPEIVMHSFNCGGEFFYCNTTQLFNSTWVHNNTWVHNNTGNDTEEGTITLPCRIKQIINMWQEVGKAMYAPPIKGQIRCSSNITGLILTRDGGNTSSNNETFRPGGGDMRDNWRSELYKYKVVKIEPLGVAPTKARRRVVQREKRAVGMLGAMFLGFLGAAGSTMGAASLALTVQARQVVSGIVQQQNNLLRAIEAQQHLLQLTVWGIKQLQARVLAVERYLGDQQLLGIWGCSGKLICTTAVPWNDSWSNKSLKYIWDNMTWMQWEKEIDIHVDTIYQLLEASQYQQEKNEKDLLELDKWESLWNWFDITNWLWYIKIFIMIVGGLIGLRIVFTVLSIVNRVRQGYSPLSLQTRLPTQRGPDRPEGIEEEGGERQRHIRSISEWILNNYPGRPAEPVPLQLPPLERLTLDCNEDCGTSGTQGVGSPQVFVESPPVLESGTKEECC

`Cc1cc(Cl)ccc1OC(C)C(=O)Nc1ccc(S(=O)(=O)Nc2cnc3ccccc3n2)cc1` (stereo unspecified): the IC50 is 21.3 µM (active).
